Earlier results, collected in patent US20080139497A1, “Use of ATP in controlled regional reperfusion as treatment during acute myocardial infarction” (priority 2006, published 2008).
Like-named read-outs stand apart in the source and are kept apart here.

Columns and labels:
[1] = infusion; after hemorrhagic shock, severe burns, sepsis-peritonitis, post-ischemic hepatic failure, endotoxin shock
[2] = after acute renal failure in rats
[3] = after acute renal failure in mini-pigs
[4] = added to the perfusate
[5] = from a toxic injury
[6] = following normothermic ischemia, infusion of low dose
[7] = following prolonged ischemia, infusion
[8] = in man
[9] = infused into left coronary artery, patients with coronary artery disease
[10] = treatment after experimental acute myocardial ischemia
[11] = small amount, exogenously administered, hypoxic myocardium
[12] = system: cultured myocardial cells; details: addition to cultured myocardial cells
[13] = injected into isolated nonperfused hypothermic dog hearts
isolated muscle fibers = details: externally added

ATP-MgCl2
survival of animals [1]: proved beneficial for the survival of animals | recovery of renal function [2]: accelerate the recovery of renal function | recovery of renal function [3]: accelerate the recovery of renal function | salvage of kidneys subjected to warm ischemia [4]: could be salvaged | renal recovery [5]: effective in hastening renal recovery | ornithine metabolism and tissue lactate level (during hemorrhagic shock, exogenously administered): can reverse the inhibition of ornithine metabolism and the change in tissue lactate level | tissue lactate production (infused): decreased tissue lactate production | myocardial recovery [6]: improved myocardial recovery | myocardial performance [7]: can improve myocardial performance | safety and hemodynamic response [8]: has been demonstrated | myocardial oxygen consumption [9]: reduction of myocardial oxygen consumption | protection of the heart from ischemia [10]: protects the heart from the adverse effects of ischemia

Nc1ncnc2c1ncn2[C@@H]1O[C@H](COP(=O)(O)O)[C@@H](O)[C@H]1O [AMP]
ATP and total adenine nucleotide content [11]: not | ATP content [12]: neither adenosine nor AMP produced this effect

Nc1ncnc2c1ncn2[C@@H]1O[C@H](CO)[C@@H](O)[C@H]1O [adenosine]
ATP content [12]: neither adenosine nor AMP produced this effect

Nc1ncnc2c1ncn2[C@@H]1O[C@H](COP(=O)(O)OP(=O)(O)O)[C@@H](O)[C@H]1O [ADP]
ATP and total adenine nucleotide content [11]: not

Nc1ncnc2c1ncn2[C@@H]1O[C@H](COP(=O)(O)OP(=O)(O)OP(=O)(O)O)[C@@H](O)[C@H]1O [ATP, adenosine 5′-triphosphate]
nucleotide and phosphocreatine levels [13]: improved nucleotide and phosphocreatine levels | ATP and total adenine nucleotide content [11]: increased the ATP and total adenine nucleotide content | contraction (isolated muscle fibers): induced contraction | ATP content [12]: caused an increase in ATP content
